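All cell lines were grown in 96-well plates and treated with compound for 48 hours. At the GI50, growth is halved.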 The source made the active and inactive calls. Rule as the data show it: active = GI50 up to about 1.1 µM and inactive = higher.
Tests used:
Test in all cases: NCI-60 cell line screen, 48 h
[1] = tested on: NCI-H460
[2] = tested on: MCF7
[3] = tested on: M14
[4] = tested on: NCI/ADR-RES
[5] = tested on: HOP-92
[6] = tested on: SF-268
[7] = tested on: MDA-N
[8] = tested on: COLO 205
[9] = tested on: SK-MEL-5
[10] = tested on: SNB-75
[11] = tested on: SK-MEL-28
[12] = tested on: HCT-116
[13] = tested on: K562
[14] = tested on: Malme-3M
[15] = tested on: A498
[16] = tested on: MOLT-4
[17] = tested on: SF-539
[18] = tested on: KM-20L2
[19] = tested on: LXFL 529

| SMILES | GI50 [1] | GI50 [2] | GI50 [3] | GI50 [4] | GI50 [5] | GI50 [6] | GI50 [7] | GI50 [8] | GI50 [9] | GI50 [10] | GI50 [11] | GI50 [12] | GI50 [13] | GI50 [14] | GI50 [15] | GI50 [16] | GI50 [17] | GI50 [18] | GI50 [19] |
| --- | --- | --- | --- | --- | --- | --- | --- | --- | --- | --- | --- | --- | --- | --- | --- | --- | --- | --- | --- |
| O=C(Nc1ccc(Nc2ccc3c(c2)C(=O)c2ccccc2C3=O)c2c1C(=O)c1ccccc1C2=O)c1ccccc1 | 6.47 µM (inactive) | 31.3 µM (inactive) | > 91.8 µM (inactive) | 22 µM (inactive) | > 59.7 µM (inactive) | 44.9 µM (inactive) | 3.05 µM (inactive) | 51.6 µM (inactive) | > 42 µM (inactive) | 16.6 µM (inactive) | > 100 µM (inactive) | > 100 µM (inactive) | 7 µM (inactive) | 14.1 µM (inactive) | > 87.7 µM (inactive) | 11.3 µM (inactive) | > 23.7 µM (inactive) |  |  |
| O=C(O)CS(=O)(=O)C(c1ccccc1)c1ccccc1 | > 100 µM (inactive) | > 100 µM (inactive) | > 100 µM (inactive) | > 100 µM (inactive) | > 100 µM (inactive) | > 100 µM (inactive) | > 100 µM (inactive) | > 100 µM (inactive) | > 100 µM (inactive) | > 100 µM (inactive) | > 100 µM (inactive) | > 100 µM (inactive) | > 100 µM (inactive) | > 100 µM (inactive) | > 100 µM (inactive) | > 100 µM (inactive) | > 100 µM (inactive) |  |  |
| Cn1c(=O)c2ccccc2[n+]2c(-c3cccc([N+](=O)[O-])c3)csc12 | 36.7 µM (inactive) | 32.6 µM (inactive) | > 100 µM (inactive) | 9.51 µM (inactive) | > 100 µM (inactive) | 26.5 µM (inactive) | 76.6 µM (inactive) | > 100 µM (inactive) | 59.7 µM (inactive) | 12.9 µM (inactive) | > 100 µM (inactive) | 67.5 µM (inactive) | 36.7 µM (inactive) | > 100 µM (inactive) | 58.9 µM (inactive) | 24.2 µM (inactive) | 59.6 µM (inactive) |  |  |
| C=CCOC(=O)N1c2ccc(O[Si](C)(C)C(C)(C)C)cc2[C@@]23O[C@@]24[C@@H]1C#C/C=C\C#C[C@]3(O)C(OC)(OC)C[C@@H]4C | 11.5 µM (inactive) | 10.8 µM (inactive) | > 65 µM (inactive) | 41.6 µM (inactive) | 18.2 µM (inactive) | 97.7 µM (inactive) | > 57.5 µM (inactive) | > 26.8 µM (inactive) | 18.7 µM (inactive) | 4.82 µM (inactive) | > 100 µM (inactive) | 8.38 µM (inactive) | 4.14 µM (inactive) | > 100 µM (inactive) | 1.31 µM (inactive) | 2.89 µM (inactive) | > 29.2 µM (inactive) |  |  |
| COc1cc(CC2c3cc(OC)c(OC)cc3CCN2C)c(Oc2cc3c(cc2OC)-c2c(O)c(OC)cc4c2C(C3)N(C)CC4)cc1OC (centres undefined) | 18.4 µM (inactive) | 12.5 µM (inactive) | 5.04 µM (inactive) | 20.6 µM (inactive) | 14.5 µM (inactive) | 17.8 µM (inactive) | 16.7 µM (inactive) | 11.4 µM (inactive) | 13.9 µM (inactive) | 14.9 µM (inactive) | 20.3 µM (inactive) | 18.1 µM (inactive) | 10.8 µM (inactive) | 23.8 µM (inactive) | 22 µM (inactive) | 19.4 µM (inactive) | 14.1 µM (inactive) |  |  |
| O=C(Nc1cccc(C(F)(F)F)c1)O/N=C(/Cl)CCl | > 100 µM (inactive) | 21.6 µM (inactive) | > 100 µM (inactive) | > 100 µM (inactive) | 22 µM (inactive) | > 100 µM (inactive) | 71.8 µM (inactive) | 67.5 µM (inactive) | 40.7 µM (inactive) | > 100 µM (inactive) | 41.5 µM (inactive) | 55.7 µM (inactive) | 29.6 µM (inactive) | > 100 µM (inactive) | > 100 µM (inactive) | 28.2 µM (inactive) | > 100 µM (inactive) |  |  |
| COc1cccc([C@@]2(O)c3c(ccc(O)c3OC)[C@H]2OC)c1OC | 47.4 µM (inactive) |  | 30.5 µM (inactive) |  | 62.7 µM (inactive) | 33.8 µM (inactive) |  |  | 37.9 µM (inactive) | 47.6 µM (inactive) | 38.1 µM (inactive) |  | 44.5 µM (inactive) | 46.2 µM (inactive) | 58.1 µM (inactive) | 45.5 µM (inactive) |  | 38.9 µM (inactive) | 19.6 µM (inactive) |
| CC1=NN(c2nc(N)nc(NS(=O)(=O)c3cc(C)c(Cl)cc3S)n2)C(C)(C)C1 | > 10 µM (inactive) | > 10 µM (inactive) | > 10 µM (inactive) | > 10 µM (inactive) | > 10 µM (inactive) | > 10 µM (inactive) | > 10 µM (inactive) | > 10 µM (inactive) | > 10 µM (inactive) | > 10 µM (inactive) | > 10 µM (inactive) | > 10 µM (inactive) | > 10 µM (inactive) | > 10 µM (inactive) | > 10 µM (inactive) | > 10 µM (inactive) | > 10 µM (inactive) |  |  |
| CCN(CC)CCNc1ccc([N+](=O)[O-])c2nc3ccc(OC)cc3c(N)c12 | 1.22 µM (inactive) | 0.43 µM (active) | 1.37 µM (inactive) | 1.24 µM (inactive) | 1.34 µM (inactive) | 1.65 µM (inactive) | 1.67 µM (inactive) | 0.4 µM (active) | 0.811 µM (active) | 1.77 µM (inactive) | 1.65 µM (inactive) | 0.151 µM (active) | 0.238 µM (active) | 1.78 µM (inactive) | 1.5 µM (inactive) | 0.301 µM (active) | 1.68 µM (inactive) |  |  |
| CC(C)CCCC(C)[C@H]1CC[C@H]2n3c(nnc3-c3ccccc3)CCC[C@]12C (some centres undefined) | 9.91 µM (inactive) | 5.97 µM (inactive) | 12.8 µM (inactive) | 9.93 µM (inactive) | 15.1 µM (inactive) | 12.7 µM (inactive) | 13.6 µM (inactive) | 3.21 µM (inactive) | 10.7 µM (inactive) | 17.5 µM (inactive) | 16.9 µM (inactive) | 9.48 µM (inactive) | 3.8 µM (inactive) | 23.2 µM (inactive) | 14 µM (inactive) | 3.96 µM (inactive) | 11.9 µM (inactive) |  |  |
| Cc1c(O)c(OC2OC(CO)C(O)C(O)C2O)cc2c1C=C[C@@H]1[C@@]2(C)C(=O)C[C@]2(C)[C@@H]([C@@](C)(O)C(=O)CCC(C)(C)O)[C@H](O)C[C@@]12C (some centres undefined) | 20.2 µM (inactive) | 33.6 µM (inactive) | 26.4 µM (inactive) | 25.5 µM (inactive) | 18.4 µM (inactive) | 28.7 µM (inactive) | 27.9 µM (inactive) | 35.5 µM (inactive) | 23 µM (inactive) | 25.1 µM (inactive) | 21.1 µM (inactive) | 18.9 µM (inactive) | 34.1 µM (inactive) | 24 µM (inactive) | 19.5 µM (inactive) | 19.7 µM (inactive) | 18.1 µM (inactive) |  |  |
| O=C(CC1SC(Nc2ccccc2Cl)=NC1=O)Nc1ccc(Cl)cc1Cl (centres undefined) | > 100 µM (inactive) |  | > 100 µM (inactive) |  | > 100 µM (inactive) | > 100 µM (inactive) |  | > 100 µM (inactive) | > 100 µM (inactive) | > 100 µM (inactive) | > 100 µM (inactive) | > 100 µM (inactive) |  | > 100 µM (inactive) |  | > 100 µM (inactive) |  | > 100 µM (inactive) | > 100 µM (inactive) |
| Cc1ccc(OCC2OC(n3cnc4c(Cl)nc(Nc5cc(Cl)cc(Cl)c5)nc43)CC2Oc2ccc(C)cc2)cc1 (centres undefined) | > 100 µM (inactive) | > 100 µM (inactive) | > 100 µM (inactive) | > 100 µM (inactive) | > 100 µM (inactive) | > 100 µM (inactive) | > 100 µM (inactive) | > 100 µM (inactive) | > 100 µM (inactive) | 17.4 µM (inactive) | > 100 µM (inactive) | > 100 µM (inactive) | > 100 µM (inactive) | > 100 µM (inactive) | > 100 µM (inactive) | > 100 µM (inactive) | > 100 µM (inactive) |  |  |
| CSc1nnc(SCc2nn3c(=O)cc(C)nc3s2)s1 | > 100 µM (inactive) | > 100 µM (inactive) | > 100 µM (inactive) | > 100 µM (inactive) | > 100 µM (inactive) | > 100 µM (inactive) | > 100 µM (inactive) | > 100 µM (inactive) | > 100 µM (inactive) | > 100 µM (inactive) | > 100 µM (inactive) | > 100 µM (inactive) | > 100 µM (inactive) | > 100 µM (inactive) | > 100 µM (inactive) | > 100 µM (inactive) | > 100 µM (inactive) |  |  |
| COc1cccc(C2c3cc4c(cc3OC(Nc3ccccc3)C2C)OCO4)c1O (centres undefined) | 4.97 µM (inactive) | 6.68 µM (inactive) | 3.84 µM (inactive) | 7.5 µM (inactive) | 2.48 µM (inactive) | 12.2 µM (inactive) | 2.42 µM (inactive) | 4.3 µM (inactive) | 5.12 µM (inactive) | 5.6 µM (inactive) | 7.21 µM (inactive) | 7.6 µM (inactive) | 2.83 µM (inactive) | 7.24 µM (inactive) | 7.82 µM (inactive) | 3.3 µM (inactive) | 4.07 µM (inactive) |  |  |
| Oc1cc(O)c2c(c1)O[C@H](c1cc(O)c(O)c(O)c1)[C@@H](O)C2 [GALLOCATECHIN] | 19.2 µM (inactive) | 18.8 µM (inactive) | 25.1 µM (inactive) | 36.2 µM (inactive) | > 10 µM (inactive) | 23.6 µM (inactive) | 21.1 µM (inactive) | 19.3 µM (inactive) | 19.1 µM (inactive) | 17.9 µM (inactive) | 43.3 µM (inactive) | 17.9 µM (inactive) | 18 µM (inactive) | > 100 µM (inactive) | > 100 µM (inactive) | > 10 µM (inactive) | 18 µM (inactive) |  |  |

— ChEMBL document CHEMBL1201862, “PubChem BioAssay data set” (2004)
